Laboratory results from patent publication US11352392B2, “Artificially synthesized peptide H-473 and use thereof” (CHINA WEST NORMAL UNIVERSITY, priority 2018, dated 2022).
Ends that are not written are not given here.

Experiments:
cfpac-1 xenograft tumors = assay: Pharmacodynamic experiment on cfpac-1 xenograft tumor in nude mice; type: in vivo, BALB/c nude mice; settings: cfpac-1 xenograft nude mice; H-473 1 μg/kg or Interleukin-2 200,000 IU/kg, tail vein, once a day for 10 times
Method: (§1) Model control group: physiological saline, 0.1 ml/10 g, once a day for 10 times.
The cultured cfpac-1 cell suspension was collected at a concentration of 1×10^7 cells/ml and inoculated subcutaneously in the right axilla of nude mice, 0.1 ml/mouse.
Diameters of the xenograft tumors in nude mice were measured with a vernier caliper. 17 days after inoculation, the animals were randomized into groups with 8 in each group when the tumors grew to 100-150 mm^3. At the same time, each group of nude mice began to be dosed. […] The anti-tumor effect of the test sample was dynamically observed by using a method of measuring tumor diameter. […]
(§2) Tumor volume (TV) was calculated according to the following formula: TV=½×a×b^2, wherein, a and b represent length and width, respectively.
(§3) Relative tumor volume (RTV) was calculated according to the measured results according to the following formula: RTV=Vt/V0, wherein, V0 is tumor volume measured when the animals are divided into cages and dosed (i.e., d0) and Vt is tumor volume at each measurement.
(§4) Evaluation indicator of anti-tumor activity: relative tumor proliferation rate T/C (%) was calculated according to the following formula:
(§5) Evaluation indicator of antitumor activity: tumor growth inhibition rate (%) was calculated according to the following formula: […]

MGC-803 xenograft tumors = assay: Pharmacodynamic experiment on human gastric cancer MGC-803 xenograft tumor in nude mice; type: in vivo, BALB/c nude mice; settings: MGC-803 xenograft nude mice; H-473 1 μg/kg or Interleukin-2 200,000 IU/kg, tail vein, once a day for 10 times
Method: as §1
The cultured MGC-803 cell suspension was collected at a concentration of 1×10^7 cells/ml and inoculated subcutaneously in the right axilla of nude mice, 0.1 ml/mouse.
Diameters of the xenograft tumors in nude mice were measured with a vernier caliper. 8 days after inoculation, the animals were randomized into groups with 8 in each group when the tumors grew to 100-150 mm^3. At the same time, each group of nude mice began to be dosed. […] The anti-tumor effect of the test sample was dynamically observed by using a method of measuring tumor diameter. […]
as §2, §3, §4, §5

asthma in mice = assay: Effect on asthma in mice (OVA sensitization, BALF cell count); type: in vivo, BALB/C mice; settings: dexamethasone 1 mg/kg intramuscular, 7 d
Method: At day 35 of the experiment, the test samples were respectively given one hour prior to OVA atomization.
5.6.1 Asthma model: mice were injected intraperitoneally with 0.2 ml of a sensitizing solution (ovalbumin OVA 80 μg+ Adjuvant liquid aluminum 0.1 ml) twice on days 0 and 14. From day 24 after the first sensitization, 2.5% OVA was aerosolized and inhaled for 45 min once daily for 18 days.
5.6.2 Administration: the corresponding test sample was given 1 h before the OVA solution atomization challenge since day 35 of the experiment. H-473 15 μg/kg group and H-473 30 μg/kg group were injected intramuscularly, respectively. The positive control group was injected with dexamethasone 1 mg/kg intramuscularly. Normal control group and model control group were injected with saline intramuscularly.
General global observations: respiratory rate, whether there was dyspnea, cyanosis, dysphoria and convulsion.
Bronchoalveolar lavage fluid (BALF) cells were counted and classified (EOS ratio elevated or not).

Molecule: RGLRGLR [H-473, RGLRGLR]
- Body weight of animals At sacrifice (cfpac-1 xenograft tumors): 22.91 ± 1.12 g
- Body weight of animals At sacrifice (MGC-803 xenograft tumors): 22.80 ± 0.97 g

Molecule: C[C@@H]1C[C@H]2[C@@H]3CCC4=CC(=O)C=C[C@]4(C)[C@@]3(F)[C@@H](O)C[C@]2(C)[C@@]1(O)C(=O)CO [Positive control, dexamethasone]
- BALF ESO (asthma in mice): 0.15 ± 0.05^## 10^9/L
- BALF ESO % (asthma in mice): 3.75 ± 0.83 %
- BALF WBC (asthma in mice): 3.8 ± 0.5^## 10^9/L
